In patent publication US6096930A, “Herbicidal cyclohexane-1,3-dione derivatives and their preparation process” (Korea Research Institute of Chemical Technology, priority 1994, dated 2000):
Read-outs that look alike come from different tables or passages of the source.

Columns and labels:
Experiment in all cases: Herbicidal activity for paddy test
Assay type in all cases: in vivo
[1] = test system: ECHOR; details: for pest or weed control at 2 g/ha: 0.002 kg/ha; for pest or weed control at 8 g/ha: 0.008 kg/ha; for pest or weed control at 31 g/ha: 0.031 kg/ha; for pest or weed control at 125 g/ha: 0.125 kg/ha; for pest or weed control at 500 g/ha: 0.500 kg/ha
Excerpt: (§1) The sterilized sandy loam soil is filled in test pot having a surface area of 348 cm^2 for upland test conditions or 115 cm^2 for paddy test species were planted in furrows.
(§2) The herbicidal activity data were taken visually by percent control, wherein 0 signifies no herbicidal effect and 100 signifies complete kill.

[2] = test system: MOOVA; details: for pest or weed control at 2 g/ha: 0.002 kg/ha; for pest or weed control at 8 g/ha: 0.008 kg/ha; for pest or weed control at 31 g/ha: 0.031 kg/ha; for pest or weed control at 125 g/ha: 0.125 kg/ha; for pest or weed control at 500 g/ha: 0.500 kg/ha
Excerpt: as §1, §2

[3] = test system: ORYSA; details: for plant injury at 2 g/ha: 0.002 kg/ha; for plant injury at 8 g/ha: 0.008 kg/ha; for plant injury at 31 g/ha: 0.031 kg/ha; for plant injury at 125 g/ha: 0.125 kg/ha; for plant injury at 500 g/ha: 0.500 kg/ha
Excerpt: as §1, §2

[4] = test system: SAGPY; details: for pest or weed control at 2 g/ha: 0.002 kg/ha; for pest or weed control at 8 g/ha: 0.008 kg/ha; for pest or weed control at 31 g/ha: 0.031 kg/ha; for pest or weed control at 125 g/ha: 0.125 kg/ha; for pest or weed control at 500 g/ha: 0.500 kg/ha
Excerpt: as §1, §2

[5] = test system: SCPJU; details: for pest or weed control at 2 g/ha: 0.002 kg/ha; for pest or weed control at 8 g/ha: 0.008 kg/ha; for pest or weed control at 31 g/ha: 0.031 kg/ha; for pest or weed control at 125 g/ha: 0.125 kg/ha; for pest or weed control at 500 g/ha: 0.500 kg/ha
Excerpt: as §1, §2

[6] = 3 Leaf, read-out: Herbicidal activity, ORYSA (3 Leaf)
[7] = seed, read-out: Herbicidal activity, ORYSA (seed)

| Compound | pest or weed control at 2 g/ha [1] [%] | pest or weed control at 8 g/ha [1] [%] | pest or weed control at 31 g/ha [1] [%] | pest or weed control at 125 g/ha [1] [%] | pest or weed control at 500 g/ha [1] [%] | pest or weed control at 2 g/ha [2] [%] | pest or weed control at 8 g/ha [2] [%] | pest or weed control at 31 g/ha [2] [%] | pest or weed control at 125 g/ha [2] [%] | pest or weed control at 500 g/ha [2] [%] | plant injury at 2 g/ha [3, 6] [%] | plant injury at 8 g/ha [3, 6] [%] | plant injury at 31 g/ha [3, 6] [%] | plant injury at 125 g/ha [3, 6] [%] | plant injury at 500 g/ha [3, 6] [%] | plant injury at 2 g/ha [3, 7] [%] | plant injury at 8 g/ha [3, 7] [%] | plant injury at 31 g/ha [3, 7] [%] | plant injury at 125 g/ha [3, 7] [%] | plant injury at 500 g/ha [3, 7] [%] | further results |
| --- | --- | --- | --- | --- | --- | --- | --- | --- | --- | --- | --- | --- | --- | --- | --- | --- | --- | --- | --- | --- | --- |
| CCC(=NOC)C1=C(O)CC(c2c(C)c(C)c3c(c2Cl)CC(C)(C)C3)CC1=O (stereo not drawn) [Compound 38] | 0 | 95 | 100 | 100 | 100 | 0 | 0 | 0 | 0 | 0 | 0 | 0 | 0 | 50 | 100 | 0 | 20 | 100 | 100 | 100 | pest or weed control at 2 g/ha [4]: 0%; pest or weed control at 8 g/ha [4]: 0%; pest or weed control at 31 g/ha [4]: 0%; pest or weed control at 125 g/ha [4]: 0%; pest or weed control at 500 g/ha [4]: 0%; pest or weed control at 2 g/ha [5]: 0%; pest or weed control at 8 g/ha [5]: 0%; pest or weed control at 31 g/ha [5]: 0%; pest or weed control at 125 g/ha [5]: 0%; pest or weed control at 500 g/ha [5]: 0% |
| CCCC(=NOCC)C1=C(O)CC(c2c(C)c(C)c3c(c2C)CC(C)(C)C3)CC1=O (stereo not drawn) [Compound 7] | 95 | 95 | 100 | 100 | 100 | 0 | 0 | 0 | 0 | 0 | 0 | 0 | 0 | 20 | 65 | 0 | 20 | 100 | 100 | 100 | pest or weed control at 2 g/ha [4]: 0%; pest or weed control at 8 g/ha [4]: 0%; pest or weed control at 31 g/ha [4]: 0%; pest or weed control at 125 g/ha [4]: 0%; pest or weed control at 500 g/ha [4]: 40%; pest or weed control at 2 g/ha [5]: 0%; pest or weed control at 8 g/ha [5]: 0%; pest or weed control at 31 g/ha [5]: 0%; pest or weed control at 125 g/ha [5]: 0%; pest or weed control at 500 g/ha [5]: 0% |
| C=CCON=C(CC)C1=C(O)CC(c2c(C)c(C)c3c(c2Cl)CC(C)(C)C3)CC1=O (stereo not drawn) [Compound 40] | 0 | 0 | 0 | 100 | 100 | 0 | 0 | 0 | 0 | 0 | 0 | 0 | 0 | 0 | 0 | 0 | 0 | 0 | 0 | 100 | pest or weed control at 2 g/ha [4]: 0%; pest or weed control at 8 g/ha [4]: 0%; pest or weed control at 31 g/ha [4]: 0%; pest or weed control at 125 g/ha [4]: 0%; pest or weed control at 500 g/ha [4]: 0%; pest or weed control at 2 g/ha [5]: 0%; pest or weed control at 8 g/ha [5]: 0%; pest or weed control at 31 g/ha [5]: 0%; pest or weed control at 125 g/ha [5]: 0%; pest or weed control at 500 g/ha [5]: 0% |
| CCON=C(CC)C1=C(O)CC(c2c(C)c(C)c3c(c2C)CC(C)(CC)C3)CC1=O (stereo not drawn) [Compound 12] | 30 | 70 | 100 | 100 | 100 | 0 | 0 | 0 | 0 | 50 | 0 | 0 | 0 | 0 | 40 | 0 | 0 | 30 | 100 | 100 | pest or weed control at 2 g/ha [4]: 0%; pest or weed control at 8 g/ha [4]: 0%; pest or weed control at 31 g/ha [4]: 0%; pest or weed control at 125 g/ha [4]: 0%; pest or weed control at 500 g/ha [4]: 30%; pest or weed control at 2 g/ha [5]: 0%; pest or weed control at 8 g/ha [5]: 0%; pest or weed control at 31 g/ha [5]: 0%; pest or weed control at 125 g/ha [5]: 0%; pest or weed control at 500 g/ha [5]: 60% |
